Data reported in PMC9456400 (International Journal of Molecular Sciences, 2022).

Columns and labels:
[1] = cited from earlier work
[2] = tested on: Huh-7 cells; experiment: UHPLC-ESI-QTOF-MS/MS lipidomics; assay type: cell-based, human
From the text: We then questioned whether lorlatinib used at concentrations efficacious against ALK-rearranged lung cancer cells but non-toxic to ALK-negative cells could promote substantial lipidome changes in Huh-7 cells (Figure 1B; Table 1). Accordingly, […], and the lipidome was characterized in a semi-targeted approach using a UHPLC-ESI-QTOF-MS/MS method, in which we matched mass spectra with commercial standards (SPLAH mix), databases such as METLIN-PCDL and Lipid MAPS (accessed on 1 July 2022), as well as corroboration of tentative lipid species upon obtaining their MS/MS spectrum. Representative chromatograms of lipidomic analyses in Huh-7 cells can be found in Figure S1.
Lipid extraction, preparation of external calibration curves, and quality control approaches were carried out as described. Samples (2 μL) were injected directly into a 1290 Infinity UHPLC system coupled with a dual Agilent jet stream ESI source to a 6550 QTOF-MS instrument (Agilent Technologies, Santa Clara, CA, USA). UHPLC-ESI-QTOF-MS conditions, data analysis and indirect quantification of selected lipid species using MassHunter Qualitative Analysis B.07.00 software (Agilent Technologies), and corroboration of the tentative characterization of compound match entities using the Lipid Maps database (www.lipidmaps.org, accessed on 1 July 2022) and targeted MS/MS acquisition on LC-QTOF-MS instrument, have been previously described in detail.
Differentially expressed lipid species from untargeted lipidomic data were analyzed by generating volcano plots indicating statistical significance versus magnitude of fold-change for each lipid species (cutoff of Benjamini–Hochberg corrected p-value < 0.05 and log2 fold-change > 1 or […]).

[3] = pooled safety analysis (n = 295) ref 14, 15
[4] = Huh-7 cells, SBN 100 µmol/L, lorlatinib 1 µmol/L, median

SMILES: C[C@H]1Oc2cc(cnc2N)-c2c(nn(C)c2C#N)CN(C)C(=O)c2ccc(F)cc21 [lorlatinib, (10R)-7-amino-12-fluoro-2,10,16-trimethyl-15-oxo-10,15,16,17-tetrahydro-2H-8,4-(metheno)pyrazolo [4,3-h][2,5,11]-benzoxadiazacyclotetradecine-3-carbonitrile]
- Incidence of hypercholesteremia and hypertriglyceridemia ([1]; lung cancer patients): > 80%
- Hyperlipidemia, median time to onset ([1]; patients): 15 days
- Frequency of grade 3 or 4 elevations in total cholesterol and triglycerides (both) ([1]; phase 2 study B7461001 (NCT01970865) ref 2): 16%
- Incidence of hypercholesteremia [1, 3]: 61%
- Incidence of hypertriglyceridemia [1, 3]: 82%
- Change of lipid species, single agent ([2]; Huh-7, 48 h, lorlatinib 1 μmol/L, silibinin 100 μmol/L): significantly increase several species of ChoE, numerous molecular species of long-chain TG, and several DG, LPC, and PC species
- Relative concentration of ChoE 16:0 [2, 4]: 11.335 µmol/mg protein
- Relative concentration of ChoE 16:1 [2, 4]: 25.820 µmol/mg protein
- Relative concentration of ChoE 17:0 [2, 4]: 2.170 µmol/mg protein
- Relative concentration of ChoE 17:1 [2, 4]: 5.670 µmol/mg protein
- Relative concentration of ChoE 18:0 [2, 4]: 4.365 µmol/mg protein
- Relative concentration of ChoE 18:2 [2, 4]: 33.284 µmol/mg protein
- Relative concentration of ChoE 18:3 [2, 4]: 12.818 µmol/mg protein
- Relative concentration of ChoE 20:2 [2, 4]: 6.459 µmol/mg protein
- Relative concentration of ChoE 20:3 [2, 4]: 42.167 µmol/mg protein
- Relative concentration of ChoE 20:4 [2, 4]: 107.967 µmol/mg protein
- Relative concentration of ChoE 20:5 [2, 4]: 68.788 µmol/mg protein
- Relative concentration of ChoE 22:4 [2, 4]: 27.538 µmol/mg protein
- Relative concentration of ChoE 22:5 [2, 4]: 59.058 µmol/mg protein
- Relative concentration of DG 34:1 [2, 4]: 16.654 µmol/mg protein
- Relative concentration of DG 34:2 [2, 4]: 17.722 µmol/mg protein
- Relative concentration of DG 34:3 [2, 4]: 2.474 µmol/mg protein
- Relative concentration of DG 36:0 [2, 4]: 2.250 µmol/mg protein
- Relative concentration of DG 36:1 [2, 4]: 8.885 µmol/mg protein
- Relative concentration of DG 36:2 [2, 4]: 20.022 µmol/mg protein
- Relative concentration of DG 36:3 [2, 4]: 2.186 µmol/mg protein
- Relative concentration of DG 36:4 [2, 4]: 4.172 µmol/mg protein
- Relative concentration of DG 40:4 [2, 4]: 9.158 µmol/mg protein
- Relative concentration of LPC 15:0 [2, 4]: 0.094 µmol/mg protein
- Relative concentration of LPC 16:0 [2, 4]: 3.165 µmol/mg protein
- Relative concentration of LPC 16: e [2, 4]: 0.023 µmol/mg protein
- Relative concentration of LPC 18:0 [2, 4]: 1.911 µmol/mg protein
- Relative concentration of LPC 18:0e [2, 4]: 0.014 µmol/mg protein
- Relative concentration of LPC 18:1 [2, 4]: 1.630 µmol/mg protein
- Relative concentration of LPC 18:2 [2, 4]: 0.188 µmol/mg protein
- Relative concentration of LPC 20:0 [2, 4]: 0.047 µmol/mg protein
- Relative concentration of LPC 20:3 [2, 4]: 0.080 µmol/mg protein
- Relative concentration of PC 30:0 [2, 4]: 6.654 µmol/mg protein
- Relative concentration of PC 31:0 [2, 4]: 3.243 µmol/mg protein
- Relative concentration of PC 32:0 [2, 4]: 20.672 µmol/mg protein
- Relative concentration of PC 32:1 [2, 4]: 56.675 µmol/mg protein
- Relative concentration of PC 32:1e [2, 4]: 0.780 µmol/mg protein
- Relative concentration of PC 32:2 [2, 4]: 7.800 µmol/mg protein
- Relative concentration of PC 33:0 [2, 4]: 3.109 µmol/mg protein
- Relative concentration of PC 33:1 [2, 4]: 12.338 µmol/mg protein
- Relative concentration of PC 33:2 [2, 4]: 1.113 µmol/mg protein
- Relative concentration of PC 34:0 [2, 4]: 5.917 µmol/mg protein
- Relative concentration of PC 34:1 [2, 4]: 93.696 µmol/mg protein
- Relative concentration of PC 34:1e [2, 4]: 0.856 µmol/mg protein
- Relative concentration of PC 34:2 [2, 4]: 49.219 µmol/mg protein
- Relative concentration of PC 34:2e [2, 4]: 0.709 µmol/mg protein
- Relative concentration of PC 34:3 [2, 4]: 5.578 µmol/mg protein
- Relative concentration of PC 34:4 [2, 4]: 0.930 µmol/mg protein
- Relative concentration of PC 35:1 [2, 4]: 6.392 µmol/mg protein
- Relative concentration of PC 35:2 [2, 4]: 6.219 µmol/mg protein
- Relative concentration of PC 35:4 [2, 4]: 1.817 µmol/mg protein
- Relative concentration of PC 36:0 [2, 4]: 0.209 µmol/mg protein
- Relative concentration of PC 36:1 [2, 4]: 24.222 µmol/mg protein
- Relative concentration of PC 36:2 [2, 4]: 46.840 µmol/mg protein
- Relative concentration of PC 36:2e [2, 4]: 0.101 µmol/mg protein
- Relative concentration of PC 36:3 [2, 4]: 20.945 µmol/mg protein
- Relative concentration of PC 36:4 [2, 4]: 26.422 µmol/mg protein
- Relative concentration of PC 36:5 [2, 4]: 6.790 µmol/mg protein
- Relative concentration of PC 36:5e [2, 4]: 0.749 µmol/mg protein
- Relative concentration of PC 38:2 [2, 4]: 1.747 µmol/mg protein
- Relative concentration of PC 38:3 [2, 4]: 2.875 µmol/mg protein
- Relative concentration of PC 38:4 [2, 4]: 12.355 µmol/mg protein
- Relative concentration of PC 38:5 [2, 4]: 12.838 µmol/mg protein
- Relative concentration of PC 38:5e [2, 4]: 0.193 µmol/mg protein
- Relative concentration of PC 38:6 [2, 4]: 9.312 µmol/mg protein
- Relative concentration of PC 38:6e [2, 4]: 0.353 µmol/mg protein
- Relative concentration of PC 40:4 [2, 4]: 0.298 µmol/mg protein
- Relative concentration of PC 40:4e [2, 4]: 0.087 µmol/mg protein
- Relative concentration of PC 40:5 [2, 4]: 1.883 µmol/mg protein
- Relative concentration of PC 40:6 [2, 4]: 2.981 µmol/mg protein
- Relative concentration of PC 42:4e [2, 4]: 0.056 µmol/mg protein
- Relative concentration of PC 42:5e [2, 4]: 0.118 µmol/mg protein
- Relative concentration of PE 32:0 [2, 4]: 0.231 µmol/mg protein
- Relative concentration of PE 36:4 [2, 4]: 15.311 µmol/mg protein
- Relative concentration of PE 36:5e [2, 4]: 1.339 µmol/mg protein
- Relative concentration of PE 38:5e [2, 4]: 0.649 µmol/mg protein
- Relative concentration of SM 32:0 [2, 4]: 0.350 µmol/mg protein
- Relative concentration of SM 32:1 [2, 4]: 2.087 µmol/mg protein
- Relative concentration of SM 32:2 [2, 4]: 0.032 µmol/mg protein
- Relative concentration of SM 33:1 [2, 4]: 1.877 µmol/mg protein
- Relative concentration of SM 34:1 [2, 4]: 22.397 µmol/mg protein
- Relative concentration of SM 34:2 [2, 4]: 1.973 µmol/mg protein
- Relative concentration of SM 35:0 [2, 4]: 1.702 µmol/mg protein
- Relative concentration of SM 35:1 [2, 4]: 0.803 µmol/mg protein
- Relative concentration of SM 36:0 [2, 4]: 0.297 µmol/mg protein
- Relative concentration of SM 36:1 [2, 4]: 1.764 µmol/mg protein
- Relative concentration of SM 36:2 [2, 4]: 0.702 µmol/mg protein
- Relative concentration of SM 38:1 [2, 4]: 0.595 µmol/mg protein
- Relative concentration of SM 38:2 [2, 4]: 0.151 µmol/mg protein
- Relative concentration of SM 39:1 [2, 4]: 0.210 µmol/mg protein
- Relative concentration of SM 40:0 [2, 4]: 0.286 µmol/mg protein
- Relative concentration of SM 40:1 [2, 4]: 1.575 µmol/mg protein
- Relative concentration of SM 40:2 [2, 4]: 0.891 µmol/mg protein
- Relative concentration of SM 41:1 [2, 4]: 0.637 µmol/mg protein
- Relative concentration of SM 41:2 [2, 4]: 0.065 µmol/mg protein
- Relative concentration of SM 42:1 [2, 4]: 2.064 µmol/mg protein
- Relative concentration of SM 42:2 [2, 4]: 3.149 µmol/mg protein
- Relative concentration of SM 42:3 [2, 4]: 0.805 µmol/mg protein
- Relative concentration of SM 43:1 [2, 4]: 0.128 µmol/mg protein
- Relative concentration of SM 43:2 [2, 4]: 0.358 µmol/mg protein
- Relative concentration of TG 46:0 [2, 4]: 1.549 µmol/mg protein
- Relative concentration of TG 46:1 [2, 4]: 2.111 µmol/mg protein
- Relative concentration of TG 46:2 [2, 4]: 1.025 µmol/mg protein
- Relative concentration of TG 48:0 [2, 4]: 2.372 µmol/mg protein
- Relative concentration of TG 48:1 [2, 4]: 5.318 µmol/mg protein
- Relative concentration of TG 48:2 [2, 4]: 4.451 µmol/mg protein
- Relative concentration of TG 48:3 [2, 4]: 1.146 µmol/mg protein
- Relative concentration of TG 50:0 [2, 4]: 1.142 µmol/mg protein
- Relative concentration of TG 50:1 [2, 4]: 9.399 µmol/mg protein
- Relative concentration of TG 50:2 [2, 4]: 11.302 µmol/mg protein
- Relative concentration of TG 50:3 [2, 4]: 4.462 µmol/mg protein
- Relative concentration of TG 50:4 [2, 4]: 1.054 µmol/mg protein
- Relative concentration of TG 51:2 [2, 4]: 2.969 µmol/mg protein
- Relative concentration of TG 52:1 [2, 4]: 3.455 µmol/mg protein
- Relative concentration of TG 52:2 [2, 4]: 16.188 µmol/mg protein
- Relative concentration of TG 52:3 [2, 4]: 12.354 µmol/mg protein
- Relative concentration of TG 52:4 [2, 4]: 3.787 µmol/mg protein
- Relative concentration of TG 52:5 [2, 4]: 1.312 µmol/mg protein
- Relative concentration of TG 52:6 [2, 4]: 0.708 µmol/mg protein
- Relative concentration of TG 54:2 [2, 4]: 3.515 µmol/mg protein
- Relative concentration of TG 54:3 [2, 4]: 11.096 µmol/mg protein
- Relative concentration of TG 54:4 [2, 4]: 6.556 µmol/mg protein
- Relative concentration of TG 54:5 [2, 4]: 4.411 µmol/mg protein
